Laboratory results reported in patent US4383113A, “Agricultural sulfonamides” (E. I. Du Pont de Nemours and Company, priority 1981, dated 1983).

Key:
Design in all cases: key: 0 = no effect, 10 = maximum effect; letter = response symbol
cassia [1] = experiment: Test A post-emergence; format: in vivo, Cassia tora; details: 0.4 kg/ha
From the text: (§1) The activity of these compounds was discovered in a number of greenhouse and field tests. The ratings are based on a numerical scale extending from 0=no effect, to 10=maximum effect. The accompanying descriptive symbols have the following meanings:
(§2) Seeds of crabgrass (Digitaria spp.), barnyardgrass (Echinochloa crusgalli), wild oats (Avena fatua), cassia (Cassia tora), morningglory (Ipomoea spp.), cocklebur (Xanthium spp.), sorghum, corn, soybean, rice, wheat and nutsedge tubers (Cyperus rotundus) were planted in a growth medium and treated preemergence with a nonphytotoxic solvent solution of the compounds of Table XII. Other batches of seeds and tubers for all of the foregoing weed and crop plants were planted at the same time as controls. The control plantings were untreated; i.e., neither any compound nor any solvent was applied. At the same time, cotton having five leaves (including cotyledonary ones), bush beans with the third trifoliate leaf expanding, crabgrass with two leaves, barnyardgrass with two leaves, wild oats with two leaves, cassia with three leaves (including cotyledonary ones), morningglory with four leaves (including the cotyledonary ones), cocklebur with four leaves (including the cotyledonary ones), sorghum with four leaves, corn with four leaves, soybean with two cotyledonary leaves, rice with three leaves, wheat with one leaf, and nutsedge with three-five leaves were sprayed with a nonphytotoxic solvent solution of the compounds of Table XII. Other groups of all the same weed and crop plants were sprayed with the same nonphytotoxic solvent so as to provide control plants. Preemergence and postemergence treated plants and controls were maintained in a greenhouse for sixteen days, then all treated plants were compared with their respective controls and rated visually for response to treatment.

nutsedge = experiment: Test A post-emergence; format: in vivo, Cyperus rotundus; details: 0.4 kg/ha
From the text: as §1, §2

crabgrass [2] = experiment: Test A post-emergence; format: in vivo, Digitaria spp.; details: 0.4 kg/ha
From the text: as §1, §2

barnyardgrass [3] = experiment: Test A post-emergence; format: in vivo, Echinochloa crusgalli; details: 0.4 kg/ha
From the text: as §1, §2

wild oats [4] = experiment: Test A post-emergence; format: in vivo, Avena fatua; details: 0.4 kg/ha
From the text: as §1, §2

soybean [5] = experiment: Test A post-emergence; format: in vivo; details: 0.4 kg/ha
From the text: as §1, §2

morningglory [6] = experiment: Test A post-emergence; format: in vivo, Ipomoea spp.; details: 0.4 kg/ha
From the text: as §1, §2

corn [7] = experiment: Test A post-emergence; format: in vivo; details: 0.4 kg/ha
From the text: as §1, §2

wheat [8] = experiment: Test A post-emergence; format: in vivo; details: 0.4 kg/ha
From the text: as §1, §2

bush bean = experiment: Test A post-emergence; format: in vivo, bush beans; details: 0.4 kg/ha
cocklebur [9] = experiment: Test A post-emergence; format: in vivo, Xanthium spp.; details: 0.4 kg/ha
From the text: as §1, §2

sorghum [10] = experiment: Test A post-emergence; format: in vivo; details: 0.4 kg/ha
From the text: as §1, §2

morningglory [11] = experiment: Test A pre-emergence; format: in vivo, Ipomoea spp.
From the text: as §1, §2

cocklebur [12] = experiment: Test A pre-emergence; format: in vivo, Xanthium spp.
From the text: as §1, §2

cassia [13] = experiment: Test A pre-emergence; format: in vivo, Cassia tora
From the text: as §1, §2

crabgrass [14] = experiment: Test A pre-emergence; format: in vivo, Digitaria spp.
From the text: as §1, §2

barnyardgrass [15] = experiment: Test A pre-emergence; format: in vivo, Echinochloa crusgalli
From the text: as §1, §2

soybean [16] = experiment: Test A pre-emergence; format: in vivo
From the text: as §1, §2

wheat [17] = experiment: Test A pre-emergence; format: in vivo
From the text: as §1, §2

wild oats [18] = experiment: Test A pre-emergence; format: in vivo, Avena fatua; details: 0.4 kg/ha
From the text: as §1, §2

sorghum [19] = experiment: Test A pre-emergence; format: in vivo
From the text: as §1, §2

corn [20] = experiment: Test A pre-emergence; format: in vivo
From the text: as §1, §2

Row | SMILES | response rating (soybean [5]) [C] | response rating (morningglory [11]; 0.4 kg/ha) | response rating (cocklebur [12]; 0.4 kg/ha) | response rating (cassia [13]; 0.4 kg/ha) [G] | response rating (crabgrass [14]; 0.4 kg/ha) | response rating (barnyardgrass [15]; 0.4 kg/ha) [H] | response rating (soybean [16]; 0.4 kg/ha) [H] | response rating (wheat [17]; 0.4 kg/ha) | response rating (wild oats [18]) | response rating (sorghum [19]; 0.4 kg/ha) | also measured
1 | COC(=O)c1ccccc1S(=O)(=O)NC(=O)N(C)c1nc(C)cc(C)n1 [drawing 419] | 3 | – | – | – | – | – | – | – | – | – | response rating (cassia [1]): 2C; response rating (nutsedge): 7G; response rating (crabgrass [2]): 7G; response rating (barnyardgrass [3]): 9C; response rating (wild oats [4]): 6C
2 | CCC(C)OC(=O)c1ccccc1S(=O)(=O)NC(=O)Nc1nc(OC)cc(OC)n1 (stereo not drawn) [drawing 423] | 9 | – | – | – | – | – | – | – | – | – | response rating (morningglory [6]): 9C; response rating (nutsedge): 7G; response rating (crabgrass [2]): 2A; response rating (barnyardgrass [3]): 9C; response rating (wild oats [4]): 2C; response rating (corn [7]): 9H; response rating (wheat [8]): 1C
3 | COc1nc(C)nc(NC(=O)NS(=O)(=O)c2ccccc2C(=O)OC2CCCC2)n1 [drawing 445] | 9 | – | – | – | – | – | – | – | – | – | response rating (bush bean): 8C; response rating (morningglory [6]): 10C; response rating (cocklebur [9]): 9C; response rating (nutsedge): 7G; response rating (crabgrass [2]): 1C; response rating (wild oats [4]): 1C; response rating (sorghum [10]): 8G; response rating (wheat [8]): 1C
4 | COc1cc(C)nc(NC(=O)NS(=O)(=O)c2ccccc2C(=O)OC2CCOC2)n1 (stereo not drawn) [drawing 446] | 9 | – | – | – | – | – | – | – | – | – | response rating (bush bean): 9C; response rating (morningglory [6]): 9C; response rating (barnyardgrass [3]): 9C; response rating (wild oats [4]): 7G; response rating (sorghum [10]): 9C; response rating (wheat [8]): 7C
5 | CCCC(OC(=O)c1ccccc1S(=O)(=O)NC(=O)Nc1nc(C)nc(OC)n1)C(C)C (stereo not drawn) [drawing 458] | 9 | – | – | – | – | – | – | – | – | – | response rating (bush bean): 9C; response rating (morningglory [6]): 10C; response rating (cocklebur [9]): 10C; response rating (cassia [1]): 9C; response rating (crabgrass [2]): 3C; response rating (barnyardgrass [3]): 9C; response rating (corn [7]): 9C
6 | COc1cc(C)nc(NC(=O)NS(=O)(=O)c2ccccc2C(=O)NC(C)C)n1 [drawing 463] | 9 | – | – | – | – | – | – | – | – | – | response rating (morningglory [6]): 10C; response rating (cocklebur [9]): 9C; response rating (cassia [1]): 9C; response rating (nutsedge): 9C; response rating (crabgrass [2]): 10C; response rating (barnyardgrass [3]): 9C; response rating (wild oats [4]): 9C; response rating (sorghum [10]): 9C
7 | CCCCCCCCCCCCNC(=O)c1ccccc1S(=O)(=O)NC(=O)Nc1nc(C)nc(OC)n1 [drawing 467] | 9 | – | – | – | – | – | – | – | – | – | response rating (morningglory [6]): 9C; response rating (nutsedge): 9G
8 | COC(=O)c1ccccc1S(=O)(=O)NC(=O)Nc1nc(C)cc(C)n1 [drawing 479] | – | 9G | 9G | 8 | 9G | 9 | 9 | 9H | – | – | response rating (morningglory [11]; 2 kg/ha): 9G; response rating (cocklebur [12]; 2 kg/ha): 9G; response rating (cassia [13]; 2 kg/ha): 9G; response rating (crabgrass [14]; 2 kg/ha): 9G; response rating (barnyardgrass [15]; 2 kg/ha): 9H; response rating (soybean [16]; 2 kg/ha): 9H; response rating (wheat [17]; 2 kg/ha): 9H
9 | COC(=O)c1ccccc1S(=O)(=O)NC(=O)Nc1nc(C)nc(OC)n1 [drawing 482] | – | 9H | 9G | 9 | – | 9 | 9 | 9H | 9H | 9H | –
10 | CCC(C)OC(=O)c1ccccc1S(=O)(=O)NC(=O)Nc1nc(OC)cc(OC)n1 (stereo not drawn) [drawing 490] | – | 9G | 9G | 8 | 0 | 9 | 8 | 2G | 8G | 9G | –
11 | CCC(C)OC(=O)c1ccccc1S(=O)(=O)NC(=O)Nc1nc(C)cc(OC)n1 (stereo not drawn) [drawing 491] | – | 9G | – | 9 | 6G | 9 | 9 | 9G | – | 9H | –
12 | COC(=O)c1cc(Cl)ccc1S(=O)(=O)NC(=O)Nc1nc(C)cc(OC)n1 [drawing 501] | – | 9G | 9H | – | – | 9 | 9 | 8H | 9G | 9H | –
13 | COC(=O)c1cc(Cl)ccc1S(=O)(=O)NC(=O)Nc1nc(OC)nc(OC)n1 [drawing 502] | – | 9G | 9G | – | 1C | – | 9 | 1C | 8G | 9H | –
14 | COc1cc(OC)nc(NC(=O)NS(=O)(=O)c2ccccc2C(=O)OC(C)C)n1 [drawing 503] | – | 9G | – | – | 8G | – | – | 7G | 7G | – | –
15 | COc1cc(C)nc(NC(=O)NS(=O)(=O)c2ccccc2C(=O)OC(C)C)n1 [drawing 504] | – | 9H | – | – | 8G | – | – | 9G | 8G | – | –
16 | COc1nc(NC(=O)NS(=O)(=O)c2ccccc2C(=O)OC(C)C)nc(OC)n1 [drawing 505] | – | – | – | – | 7G | – | – | 7G | 8G | – | –
17 | CCOC(=O)c1ccccc1S(=O)(=O)NC(=O)Nc1nc(OC)cc(OC)n1 [drawing 508] | – | – | – | – | – | – | – | – | – | – | response rating (cocklebur [12]; 2 kg/ha): 9G; response rating (cassia [13]; 2 kg/ha): 9G; response rating (crabgrass [14]; 2 kg/ha): 9H; response rating (barnyardgrass [15]; 2 kg/ha): 9H; response rating (sorghum [19]; 2 kg/ha): 10H; response rating (soybean [16]; 2 kg/ha): 9H; response rating (wheat [17]; 2 kg/ha): 9H
18 | CCOC(=O)c1ccccc1S(=O)(=O)NC(=O)Nc1nc(OC)cc(OC)n1 [drawing 509] | – | – | 9G | 9 | – | 9 | 9 | 9H | 9G | 9H | –
19 | Cc1cc(C)nc(NC(=O)NS(=O)(=O)c2ccccc2C(=O)O)n1 [drawing 510] | – | – | – | – | – | – | – | – | – | – | response rating (corn [20]; 2 kg/ha): 3G
20 | C=CCOC(=O)c1ccccc1S(=O)(=O)NC(=O)Nc1nc(C)nc(OC)n1 [drawing 518] | – | 9G | 9G | 9 | 9H | 9 | 9 | 9H | – | 10H | –
21 | COc1cc(C)nc(NC(=O)NS(=O)(=O)c2ccccc2C(=O)OCCOc2ccccc2)n1 [drawing 528] | – | 9C | 9G | – | – | – | 9 | 9H | – | – | response rating (corn [20]; 0.4 kg/ha): 9G
22 | COC(=O)c1ccccc1S(=O)(=O)NC(=O)Nc1nc(OC)nc(OCC(F)(F)F)n1 [drawing 540] | – | 9G | 9G | 9 | 2G | – | 9 | 6G | – | – | –
23 | COc1cc(C)nc(NC(=O)NS(=O)(=O)c2ccccc2C(=O)OC(C)CCl)n1 (stereo not drawn) [drawing 545] | – | 9G | 9G | 9 | – | – | 9 | 9H | – | – | response rating (corn [20]; 0.4 kg/ha): 9H
